# Key:
# Assay type in all cases: biochemical
# [1] = molecular target: T1, HCV NS3/4A protease complex, H77 strain (Hepatitis C virus genotype 1a, UniProt P27958, C1454S/C1711G); assay: FRET peptide assay to monitor HCV NS3/4A proteolytic activity (H77 strain); settings: H77 strain (1a genotype)
# T1 construct: recombinant HCV NS3/4A protease complex (amino acids 1027 to 1711) for these strains; His-tag (inferred from pET21b vector and Ni-NTA purification); made in house; host or cells: Escherichia coli BL21 (DE3), pET21b
# From the text: HCV NS3 protease complexes, derived from the BMS strain, H77 strain or J4L6S strain, were generated, as described below. These purified recombinant proteins were generated for use in a homogeneous assay (see below) to provide an indication of how effective compounds of the present disclosure would be in inhibiting HCV NS3 proteolytic activity.
# The H77 and J4L6S strains were used for production of recombinant NS3/4A protease complexes. DNA encoding the recombinant HCV NS3/4A protease complex (amino acids 1027 to 1711) for these strains were manipulated as described by P. Gallinari et al. (see Gallinari P, Paolini C, Brennan D, Nardi C, Steinkuhler C, De Francesco R. Biochemistry. 38(17):5620-32, (1999)). Briefly, a three-lysine solubilizing tail was added at the 3′-end of the NS4A coding region. The cysteine in the P1 position of the NS4A-NS4B cleavage site (amino acid 1711) was changed to a glycine to avoid the proteolytic cleavage of the lysine tag. Furthermore, a cysteine to serine mutation was introduced by PCR at amino acid position 1454 to prevent the autolytic cleavage in the NS3 helicase domain. […]
# human liver cathepsin B = molecular target: T2, human liver cathepsin B (Homo sapiens, UniProt P07858); assay: Specificity assay, cathepsin B
# T2 construct: purchased Sigma or EMDbiosciences; host or cells: human liver (as named)
# Method: (§1) The specificities of compounds of the present disclosure were determined against a variety of serine proteases: human neutrophil elastase (HNE), porcine pancreatic elastase (PPE) and human pancreatic chymotrypsin and one cysteine protease: human liver cathepsin B. In all cases, a 96-well plate format protocol using colorimetric p-nitroaniline (pNA) substrate or fluorometric Amino-Methyl-Coumarin (AMC) substrate, specific for each enzyme was used as described previously (PCT Patent Application No. WO 00/09543) with some modifications. All enzymes were purchased from Sigma or EMDbiosciences while the substrates were from Bachem.
# Each pNA assay included a 2 h enzyme-inhibitor pre-incubation at room temperature followed by addition of substrate and hydrolysis to ˜15% conversion as measured on a Spectramax Pro microplate reader. The cathepsin B assay was initiated by adding substrate to a 10 min enzyme-inhibitor pre-incubation at room temperature, and the assay plate measured immediately using the Cytofluor Series 4000. Compound concentrations varied from 100 to 0.4 μM depending on their potency. […]
# (§2) The percentage of inhibition was calculated using the formula: [1−((UVinh−UVblank)/(UVctl−UVblank))]×100 […]
# [2] = molecular target: T3, human pancreatic chymotrypsin (Homo sapiens, UniProt P17538); assay: Specificity assay, chymotrypsin
# T3 construct: purchased Sigma or EMDbiosciences
# Method: as §1
# (§3) Each pNA assay included a 2 h enzyme-inhibitor pre-incubation at room temperature followed by addition of substrate and hydrolysis to ˜15% conversion as measured on a Spectramax Pro microplate reader. The cathepsin B assay was initiated by adding substrate to a 10 min enzyme-inhibitor pre-incubation at room temperature, and the assay plate measured immediately using the Cytofluor Series 4000. Compound concentrations varied from 100 to 0.4 μM depending on their potency.
# (§4) 50 mM Tris(hydroxymethyl)aminomethane hydrochloride (Tris-HCl) pH 8, 0.5 M Sodium Sulfate (Na2SO4), 50 mM NaCl, 0.1 mM EDTA, 3% DMSO, 0.01% Tween-20 with: […]
# as §2
# [3] = molecular target: T4, porcine pancreatic elastase (PPE) (Sus scrofa, UniProt P00772); assay: Specificity assay, pancreatic elastase
# T4 construct: purchased Sigma or EMDbiosciences
# Method: as §1, §3, §4, §2
# T4 sequence (P00772 27-266): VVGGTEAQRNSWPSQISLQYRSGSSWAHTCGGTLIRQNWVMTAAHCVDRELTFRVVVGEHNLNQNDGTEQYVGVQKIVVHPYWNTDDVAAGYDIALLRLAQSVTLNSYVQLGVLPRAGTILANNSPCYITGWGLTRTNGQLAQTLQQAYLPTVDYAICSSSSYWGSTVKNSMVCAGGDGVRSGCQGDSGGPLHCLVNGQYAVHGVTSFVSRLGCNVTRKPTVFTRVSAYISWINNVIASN
# T3 sequence (P17538 19-263): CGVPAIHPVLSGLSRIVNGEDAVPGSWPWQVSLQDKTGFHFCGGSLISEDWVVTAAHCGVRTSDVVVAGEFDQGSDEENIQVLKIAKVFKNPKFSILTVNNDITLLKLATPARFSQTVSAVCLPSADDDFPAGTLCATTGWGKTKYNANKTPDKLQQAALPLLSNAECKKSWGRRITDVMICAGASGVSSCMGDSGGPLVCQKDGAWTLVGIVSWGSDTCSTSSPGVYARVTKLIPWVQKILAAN
# T1 sequence (P27958 1027-1711 C1454S/C1711G, one chain of several): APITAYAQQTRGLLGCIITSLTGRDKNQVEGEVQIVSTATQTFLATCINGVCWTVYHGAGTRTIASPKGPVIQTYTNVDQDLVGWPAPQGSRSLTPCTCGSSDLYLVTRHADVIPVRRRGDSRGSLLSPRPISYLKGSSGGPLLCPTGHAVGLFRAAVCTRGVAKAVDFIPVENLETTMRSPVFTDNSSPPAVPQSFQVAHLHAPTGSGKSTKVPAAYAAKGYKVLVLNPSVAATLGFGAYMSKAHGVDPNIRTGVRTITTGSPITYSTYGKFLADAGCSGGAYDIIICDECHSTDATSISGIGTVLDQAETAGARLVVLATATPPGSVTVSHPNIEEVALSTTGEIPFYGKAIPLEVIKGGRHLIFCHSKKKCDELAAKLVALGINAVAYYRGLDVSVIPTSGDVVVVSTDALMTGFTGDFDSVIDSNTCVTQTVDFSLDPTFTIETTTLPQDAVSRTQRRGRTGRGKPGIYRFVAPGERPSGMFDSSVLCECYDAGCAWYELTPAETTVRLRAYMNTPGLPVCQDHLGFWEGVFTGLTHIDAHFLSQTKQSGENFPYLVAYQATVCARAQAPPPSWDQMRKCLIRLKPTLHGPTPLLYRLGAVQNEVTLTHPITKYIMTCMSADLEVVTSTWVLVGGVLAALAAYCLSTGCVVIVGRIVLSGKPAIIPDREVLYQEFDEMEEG
structure (smiles),measurement,setting,value
CC(C)(C)OC(=O)N[C@H]1CN(C2CC2)CCC/C=C\C2C[C@@]2(C(=O)NS(=O)(=O)C2CC2)NC(=O)[C@@H]2C[C@@H](Oc3ccccn3)CN2C1=O (stereo partly shown) [Compound 1],IC50,[1],0.018 µM
same,IC50,human liver cathepsin B,> 100 µM
same,IC50,[2],> 100 µM
same,IC50,[3],> 100 µM
